In patent US20250352458A1, “IMPROVEMENTS IN OR RELATING TO EXTRACTS” (Givaudan SA, priority 2020, published 2025):
Where “and” joins values, the source holds several entries; their conditions need not be identical. Equal values may be shown once.

Experiments:
hiPSC derived sebocytes = experiment: In vitro lipogenesis inhibition in sebocytes derived from iPS with three ethnicities; format: cell-based, human; conditions: 10 μM (RA10), each ethnicity, arachidonic acid induced
S. aureus (ATCC 33592) = experiment: MIC evaluation, optical density and percentage of inhibition; format: cell-based, Staphylococcus aureus
From the text: The minimum inhibitory concentration of the following active ingredients has been assessed: • Mangifera indica extract (in propanediol/water 75/25); • Vehicule (propanediol/water 75/25, expressed as Activolo3-75%); • “Pool Mangiferin” which is the pure molecule mangiferin at the same concentration in the Mangifera indica extract in propanediol/water 75/25. • “Pool Mangifera” with is the mix of the 4 molecules (mangiferin, maclurin-C-glucoside, irifluophenone-C-glucoside, gallotanin) at the same concentration in the Mangifera indica extract in propane-diol/water 75/25. S. aureus: The day before the experiment S. aureus (ATCC 33592) was plated and grown overnight at 37° C. Colonies were resuspended in 5 mL of TSB (Tryptic Soy Broth) to obtain a 0.5 McFarland D O (≈1.10^8 CFU/ml) (launch of culture at D-1). […] Concentrations are expressed in % (m/v). […] The diluted bacterial suspension was added to columns 2 to 12. RCB medium was added to column 1 as negative control. Optical density was determined, which correlates to the bacterial growth.

[1] = tested on: C. granulosum (ATCC 25564); experiment: as above; format: cell-based, Cutibacterium granulosum
From the text: (§1) The minimum inhibitory concentration of the following active ingredients has been assessed: • Mangifera indica extract (in propanediol/water 75/25); • Vehicule (propanediol/water 75/25, expressed as Activolo3-75%); • “Pool Mangiferin” which is the pure molecule mangiferin at the same concentration in the Mangifera indica extract in propanediol/water 75/25. • “Pool Mangifera” with is the mix of the 4 molecules (mangiferin, maclurin-C-glucoside, irifluophenone-C-glucoside, gallotanin) at the same concentration in the Mangifera indica extract in propane-diol/water 75/25. […] After two days, the bacterial concentration was adjusted in reinforced clostridial broth to obtain a solution at 1.106 CFU/ml (5.104 CFU/well). […] Concentrations are expressed in % (m/v). […] The diluted bacterial suspension was added to columns 2 to 12. RCB medium was added to column 1 as negative control. Optical density was determined, which correlates to the bacterial growth.

[2] = tested on: Propionibacterium acnes (C. acnes) phylotype IA1 ATCC 6919; experiment: as above; format: cell-based
From the text: as §1

[3] = tested on: H. influenzae (ATCC 49766); experiment: as above; format: cell-based, Haemophilus influenza
From the text: The minimum inhibitory concentration of the following active ingredients has been assessed: • Mangifera indica extract (in propanediol/water 75/25); • Vehicule (propanediol/water 75/25, expressed as Activolo3-75%); • “Pool Mangiferin” which is the pure molecule mangiferin at the same concentration in the Mangifera indica extract in propanediol/water 75/25. • “Pool Mangifera” with is the mix of the 4 molecules (mangiferin, maclurin-C-glucoside, irifluophenone-C-glucoside, gallotanin) at the same concentration in the Mangifera indica extract in propane-diol/water 75/25.
H. influenzae (ATCC 49766) was cultured in Mueller Hinton broth as recommended by ATCC with 5% CO2. The Bacterial concentration was adjusted in Mueller Hinton broth to obtain a solution at 1.106 CFU/ml (5.104 CFU/well) (launch of culture at D-2). […] Two day later, the inhibition of H. influenzae was evaluated using Colony counter IUL instruments, flash and go model (reading at D2).
Concentrations are expressed in % (m/v).
The diluted bacterial suspension was added to columns 2 to 12. RCB medium was added to column 1 as negative control.
Optical density was determined, which correlates to the bacterial growth. Thereafter, an inhibition value (%) was determined for each condition using the following formula: […]
The percentage of inhibition must be higher or equal than 90% to reach the MIC.

[4] = tested on: human sebaceous glands of skin explants; experiment: Ex vivo sebum quantification, lipids of sebaceous glands by GC/MS; format: cell-based
Experimental: Skin explants from lifting of 3 donors (average 56.7 years old) were treated in systemic every day during 5 days in presence of dihydrotestosterone (DHT) at 30UM to induce an increase of lipogenesis mimicking a high production of sebum condition (stimulated condition) or left untreated (control condition). In parallel, skin explants were treated in presence of 0.5% of dibenzoyle peroxide (POB, positive reference) or with the Mangifera indica extract at 1% and 2%.
The tissues are extracted with an aqueous cocktail overnight at 4° C. They are then treated to take off the epidermis. A specific technique is used to recover the glands attached to these hair shafts.
After rinsing in an isotonic medium, the epidermis and its appendages are transferred to a watch glass. The sebaceous glands attached to the hair shaft of hair follicles are cut at the level of the pilosebaceous canal and deposited against the walls of the recovery vials. The sebaceous glands are recovered after dilaceration of the epidermal fragments. The glands are collected in a batch of 10 units. A washing of the glands is then performed to eliminate any contaminations of non-sebaceous origin. The sebum is then extracted with an organic cocktail overnight at room temperature. From this lipid extract, purification was carried out in order to isolate the different classes of lipids.
The identification and quantification of the different classes of lipids was realized by GC/MS.
The results are expressed in percent of the stimulated control (Untreated+DHT 30 μM). Bonferroni test multi comparison was used to do statistical analysis with #p<0.1, *p<0.05, **p<0.01, ***p<0.001.

[5] = tested on: sebaceous glands of skin explants NativeSkin; experiment: Ex vivo sebaceous gland 3D volume in skin explants; format: cell-based, human; conditions: linoleic acid at 10% in Carbopol, 7 days, vs control
Experimental: The test was carried out on 4 skin explants NativeSkin® (average 40.75 years old) from pelvic area, a full-thickness skin biopsy embedded in a solid and nourishing matrix while its epidermal surface is left in contact with air. The skin biopsy is firmly embedded in the matrix that prevents any lateral diffusion of topically applied formulations. The skin explants were treated topically once a day for 7 days in presence of linoleic acid at 10% in Carbopol Ultrez 10 in order to stimulate the lipogenesis and mimic the condition of sebum excess (stimulated condition) or treated with Carbopol only (control condition). This induction mimics a high production of sebum. In parallel, skin explants were treated in presence of Mangifera indica extract at 1% and 2% formulated in Carbopol. After treatment, skin explants were fixed in formalin. After fixation, skin explants were cleared with methanol and a mix of Benzyl Benzoate and Benzyl Alcohol. All samples were observed by fluorescence light sheet microscopy (SPIM, homemade fabrication). Stack of images were taken per sample. 3D pictures of the glands were reconstructed and the size of each sebaceous gland was quantified using Amira® software. Results were represented with the mean volume of sebaceous gland +/−standard error to the mean. […] The results are expressed in percent of the stimulated control (10% linoleic acid). […]

[6] = tested on: human sebocyte cell line SEBO662AR; experiment: In vitro lipogenesis inhibition in human sebocytes cell line (Bodipy lipid labeling); format: cell-based
Experimental: The sebocytes were seeded in 96-well plates (50 000 cells/well) and cultured for 24 hours in culture medium. The medium was then removed and replaced by assay medium containing the tested products including Mangifera indica extract at 0.3%, Mangiferin alone or pooled active molecules (four main phytomarkers) at their equivalent dosage in the extract at 0.3%. In the control assay medium, no product was contained. The cells were preincubated for 4 hours at those conditions. Then, the lipogenic mix (containing vitamin C, vitamin D3, insulin and calcium, and no androgens) was added in order to mimic the condition of excess of sebum, and the cells were incubated for 7 days. At mid-term, i.e. after 3 days of incubation, half of the medium was removed and the treatments were renewed (including lipogenic mix stimulation). […]
At the end of the incubation, the cells were rinsed, fixed and permeabilized. […] The labeling was quantified by the measurement of the fluorescence intensity normalized to the total number of cells (Integration of numerical data with the Developer Toolbox 1.5, GE Healthcare software). Results were expressed as Fluorescence intensity normalized to the number of cells, % stimulated control and % inhibition. The fluorescence intensity was analyzed exclusively in the lipid droplets (image analysis program based on object segmentation). […]

[7] = Ciprofloxacin 16 10^−4 % (m/v), plate col. 8-12
[8] = DHT 30 μM stimulation vs untreated
[9] = POB at 0.5%, DHT stimulated, 5 days

With `CC1=C(/C=C/C(C)=C/C=C/C(C)=C\C(=O)O)C(C)(C)CCC1` [13-cis-retinoic-acid] as the compound, how does the lipids production (hiPSC derived sebocytes) read?
Its lipids production is “significant reduction”.

Which “Percentage of inhibition, S. aureus” value (S. aureus (ATCC 33592); [7]) does the source give for `O=C(O)c1cn(C2CC2)c2cc(N3CCNCC3)c(F)cc2c1=O` [Ciprofloxacin, reference compound] here?
Its value is 99.4%.

And the “inhibition of S. aureus” value (S. aureus (ATCC 33592); Ciprofloxacin, text of Table 5b)?
Its value is 99%.

And the “Percentage of inhibition, C. granulosum” value [1, 7]?
Its value is 97.8% and 99.0% and 98.5%.

What about the “inhibition of C. granulosum” value ([1]; Ciprofloxacin, text of Table 4b) of the same compound?
The value was 99%.

What about the “Percentage of inhibition, C. acnes” value [2, 7] of the same compound?
Its value is 99.3% and 98.8%.

And the “inhibition of P. acnes (FIG. 9)” value ([2]; Ciprofloxacin from 1×10^−4%)?
The value was 99%.

What about the “inhibition of P. acnes” value ([2]; Ciprofloxacin, text of Table 3b) of the same compound?
Its value is 99%.

And the “Percentage of inhibition, H. influenza” value [3, 7]?
Its value is 99.7% and 99.0%.

And the “inhibition of H. influenza” value ([3]; Ciprofloxacin, text of Table 6b)?
The value was 99%.

Which “cholesterol content of sebum” value [4, 8] does the source give for `C[C@]12CCC(=O)C[C@@H]1CC[C@@H]1[C@@H]2CC[C@]2(C)[C@@H](O)CC[C@@H]12` [DHT, dihydrotestosterone] here?
Its value is “no effect”.

What about the “free fatty acids content of sebum” value [4, 8] of the same compound?
Its value is “significant increase”.

And the “squalene content of sebum” value [4, 8]?
The value was “significant increase”.

And the “triglycerides content of sebum” value [4, 8]?
The value was “significant increase”.

With `CCCCC/C=C\C/C=C\CCCCCCCC(=O)O` [Linoleic acid, linoleic acid] as the compound, how does the “change of 3D volume of sebaceous glands” value [5] read?
The value was “+37%”.

With `O=c1c2cc(O)c(O)cc2oc2cc(O)c([C@@H]3O[C@H](CO)[C@@H](O)[C@H](O)[C@H]3O)c(O)c12` [Mangiferin] as the compound, how does the “reduction of lipogenesis compared with lipogenic mix condition” value ([6]; Mangiferin at the same amount as available in the extracts) read?
Its value is −22%.

For `CCCCCCCCCCCCCCOc1ccc(C(=O)OCC(=O)N(C)CC(=O)OCC)o1` [Olumacostat glasaretil, reference compound], which “reduction of lipid production compared with lipogenic mix condition” value ([6]; Olumacostat glasaretyl at 1 μm, 7 days) is on record?
The value was −37%.

How did the “free fatty acids content of sebum” value [4, 9] turn out when `O=C(OOC(=O)c1ccccc1)c1ccccc1` [POB, dibenzoyle peroxide] was run?
The value was “significant reduction”.

And the “squalene content of sebum” value [4, 9]?
Its value is “significant reduction”.

What about the “triglycerides content of sebum” value [4, 9] of the same compound?
Its value is “significant reduction”.
